The NIST ThermoML archive (doi:10.1021/je100017w)
Numbers after ± are expanded uncertainties.

Settings: Liquid

CC[Si](OC)(OC)OC [ethyltrimethoxysilane]
vapor or sublimation pressure (306.35 K): 2.325 ± 0.26 kPa | vapor or sublimation pressure (311.45 K): 3.325 ± 0.26 kPa | vapor or sublimation pressure (315.95 K): 4.325 ± 0.26 kPa | vapor or sublimation pressure (319.8 K): 5.325 ± 0.27 kPa | vapor or sublimation pressure (324.15 K): 6.325 ± 0.29 kPa | vapor or sublimation pressure (328.65 K): 8.325 ± 0.32 kPa | vapor or sublimation pressure (334.15 K): 10.32 ± 0.36 kPa | vapor or sublimation pressure (338.95 K): 13.32 ± 0.42 kPa | vapor or sublimation pressure (343.65 K): 16.32 ± 0.47 kPa | vapor or sublimation pressure (347.65 K): 19.32 ± 0.54 kPa | vapor or sublimation pressure (351.35 K): 22.32 ± 0.6 kPa | vapor or sublimation pressure (354.55 K): 25.32 ± 0.67 kPa | vapor or sublimation pressure (357.45 K): 28.32 ± 0.74 kPa | vapor or sublimation pressure (360.15 K): 31.32 ± 0.81 kPa | vapor or sublimation pressure (362.65 K): 34.33 ± 0.87 kPa | vapor or sublimation pressure (364.95 K): 37.33 ± 0.94 kPa | vapor or sublimation pressure (367.55 K): 40.33 ± 1 kPa | vapor or sublimation pressure (369.65 K): 43.33 ± 1.1 kPa | vapor or sublimation pressure (371.05 K): 46.33 ± 1.1 kPa | vapor or sublimation pressure (374.05 K): 49.33 ± 1.2 kPa | vapor or sublimation pressure (375.85 K): 52.33 ± 1.3 kPa | vapor or sublimation pressure (376.45 K): 55.33 ± 1.6 kPa | vapor or sublimation pressure (379.85 K): 58.33 ± 1.4 kPa | vapor or sublimation pressure (381.15 K): 61.33 ± 1.5 kPa | vapor or sublimation pressure (382.55 K): 64.33 ± 1.6 kPa | vapor or sublimation pressure (383.15 K): 67.33 ± 1.6 kPa | vapor or sublimation pressure (384.85 K): 70.33 ± 1.7 kPa | vapor or sublimation pressure (385.85 K): 73.33 ± 1.8 kPa | vapor or sublimation pressure (386.65 K): 76.33 ± 1.9 kPa | vapor or sublimation pressure (387.55 K): 79.33 ± 1.9 kPa | vapor or sublimation pressure (388.95 K): 82.33 ± 2 kPa | vapor or sublimation pressure (389.95 K): 85.33 ± 2.1 kPa | vapor or sublimation pressure (390.95 K): 88.33 ± 2.1 kPa | vapor or sublimation pressure (392.95 K): 91.33 ± 2.2 kPa | vapor or sublimation pressure (393.05 K): 94.33 ± 2.3 kPa | vapor or sublimation pressure (393.75 K): 97.33 ± 2.4 kPa | vapor or sublimation pressure (393.95 K): 100.33 ± 2.3 kPa | vapor or sublimation pressure (397.15 K): 101.33 ± 2.3 kPa
